Consider five molecules from patent EP2308883A1, “New derivatives of thieno[2,3-b]pyridine and 5,6,7,8 tetrahydrothieno[2,3 b]quinoline in particular useful in the treatment of malaria” (priority 2009, dated 2011).

Structures are written as SMILES. Where two headings read alike, the source gives them in different places. Bounds are passed on as bounds.

The target of one experiment is T1, PfGSK-3 (Plasmodium falciparum, UniProt O77344).
T1 construct: His6; made in house; host or cells: Escherichia coli TOP 10
T1 sequence (O77344 1-440): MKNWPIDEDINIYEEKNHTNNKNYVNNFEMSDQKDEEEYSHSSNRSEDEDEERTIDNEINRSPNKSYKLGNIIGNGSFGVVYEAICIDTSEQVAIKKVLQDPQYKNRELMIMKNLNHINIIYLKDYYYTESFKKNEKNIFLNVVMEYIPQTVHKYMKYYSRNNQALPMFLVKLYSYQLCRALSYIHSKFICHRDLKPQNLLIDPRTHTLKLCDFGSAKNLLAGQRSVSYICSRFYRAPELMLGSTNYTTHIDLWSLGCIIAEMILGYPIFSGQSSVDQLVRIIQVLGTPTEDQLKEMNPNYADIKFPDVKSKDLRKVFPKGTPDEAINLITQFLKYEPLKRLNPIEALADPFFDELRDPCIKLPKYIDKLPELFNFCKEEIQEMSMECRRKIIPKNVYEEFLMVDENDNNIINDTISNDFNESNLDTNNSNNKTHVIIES
Description: Kinase assay with recombinant (His)6-tagged PfGSK3, GS-1 peptide and [γ-33P] ATP. The following applies: for anti-PfGSK-3 IC50 values: result in words. It counts as biochemical. The method, then: Escherichia coli strain (TOP 10) containing a plasmid encoding PfGSK3 with six histidines (pBAD-Thio-TOPO, Invitrogen) were cultured into 500 ml of LB medium containing 100 µg/ml ampicillin, at 37°C, under shaking (250 rpm) until OD600 of 0.5 was reached. Expression was induced with 0.5 ml of 20% arabinose (0.02% final concentration). The culture was grown at 37°C with shaking for 4 hours. Cells were harvested by centrifugation at 9000 rpm for 10 min. The bacterial pellet was stored frozen at -80°C until further processing. For proteins extraction, pellet was resuspended in 10 ml of lysis buffer (50 mM NaH2PO4 pH 8.0, 300 mM NaCl, 10 mM imidazole) with the addition of protease inhibitors (complete EDTA-free, Roche) and lysozyme ([…] final). Cells were disrupted by sonication and the cell lysate was centrifuged at 24000 rpm for 30 min at 4°C. The recombinant PfGSK3 protein was purified by Immobilized Metal Affinity Chromatography according to a batch procedure on 1 ml of Nickel affinity resin (Ni-NTA agarose beads, Qiagen). Beads were washed four times with 10 ml of wash buffer (50 mM NaH2PO4 pH 8.0, 300 mM NaCl, 30 mM imidazole). Protein was eluted with one volume of elution buffer (50 mM NaH2PO4 pH 8.0, 300 mM NaCl, 250 mM imidazole, 10% glycerol).
(§1) Both porcine GSK3 and PfGSK3 were assayed with 40 µM GS-1 peptide, a specific GSK-3 substrate, ([…]pEDEEE, synthesized by the Peptide Synthesis Unit, Institute of Biomolecular Sciences, University of Southampton, U.K.), in buffer A (25 mM Tris-HCl pH 7.5, 10 mM MgC12, 1 mM EGTA, 1 mM DTT, 50 µg heparin/ml, 0.5 mg BSA/ml) in the presence of 15 µM [γ-^33P] ATP (3000 Ci/mmol; 1 mCi/ml) in a final volume of 30 µl. After 30 min. incubation at 30°C, 25 µl aliquots of supernatant were spotted onto 2.5 x 3 cm pieces of Whatman P81 phosphocellulose paper, and, 20 sec. later, the filters were washed five times (for at least 5 min. each time) in 1 % phosphoric acid. The wet filters were counted in the presence of 1 ml ACS (Amersham) scintillation fluid. The kinase activity was expressed in pmoles phosphate incorporated in GS-1 or in percentage of the maximal activity.

The target in experiment [1] is Mammalian GSK-3 (GSK-3α/β). Nature of the experiment: Kinase assay with native porcine GSK3 purified from porcine brain, GS-1 peptide and [γ-33P] ATP. The settings on record: for anti-mammalian GSK-3 IC50 values: result in words. In kind it is biochemical. The method, then: Porcine GSK3 (GSK-3α/β) was purified from porcine brain by affinity chromatography on immobilized axin according to the protocol described in Primot et al (Protein Expression and Purification 20, 394-404, 2000).
as §1

Experiment [2] has as its target T2, GSK-3 (Trypanosoma cruzi, UniProt Q4E1X0).
T2 sequence (Q4E1X0 1-353): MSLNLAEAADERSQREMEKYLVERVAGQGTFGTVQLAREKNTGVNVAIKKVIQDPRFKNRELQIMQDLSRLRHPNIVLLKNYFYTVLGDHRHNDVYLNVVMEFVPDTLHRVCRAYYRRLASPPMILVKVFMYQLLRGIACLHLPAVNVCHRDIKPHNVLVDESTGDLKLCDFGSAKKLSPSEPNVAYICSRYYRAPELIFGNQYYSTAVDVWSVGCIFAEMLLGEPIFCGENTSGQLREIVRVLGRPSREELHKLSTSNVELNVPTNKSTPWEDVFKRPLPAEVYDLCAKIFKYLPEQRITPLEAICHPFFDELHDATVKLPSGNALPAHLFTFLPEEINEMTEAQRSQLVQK
Nature of the experiment: Species specificity: recombinant tagged GSK-3 orthologue kinase assay. In kind it is biochemical.

Experiment [3] concerns the target T3, GSK-3 (Leishmania major, UniProt Q4QE15).
T3 construct: made in house
The experiment is described as above. In kind it is biochemical, Leishmania majo. The source says: (§2) Given the strong conservation of GSK-3 across evolution and the surprising selectivity of the compounds according to the present invention towards PfGSK-3 versus mammalian GSK-3, a selection of 12 GSK-3 orthologues of various species chosen on the "tree of life" analyzed. The species belong to the Apicomplexa (P. falciparum, P. vivax, P. knowlesi and P. berghei (Gardner, M.J. et al. Genome sequence of the human malaria parasite Plasmodium falciparum. Nature 419, 498-511 (2002); Carlton, J.M. et al. Comparative genomics of the neglected human malaria parasite Plasmodium vivax. Nature 455, 799-803 (2008); Pain, A. et al. The genome of the simian and human malaria parasite Plasmodium knowlesi. Nature 455, 799-803 (2008).). Toxoplasma gondii (Qin, C.L., Tang, J. and Kim, K. Cloning and in vitro expression of TPK3, a Toxoplasma gondii homologue of shaggy/glycogen synthase kinase-3 kinases. Mol. Biochem. Parasitol. 93, 273-283 (1998)), Cryptosporidium parvum.
(§3) Following PCR amplification from cDNA libraries or direct synthesis based on databases sequences, the GSK-3 genes were inserted in appropriate expression vectors and recombinant, tagged kinases were expressed, affinity purified and assayed in the presence of up to 10-100µM of each compound of formula (I) according to the present invention and a selection of the PfGSK-3 inhibitors.

A further experiment deals with T4, GSK-3 α (Homo sapiens, UniProt P49840).
T4 construct: made in house
T4 sequence (P49840 whole entry): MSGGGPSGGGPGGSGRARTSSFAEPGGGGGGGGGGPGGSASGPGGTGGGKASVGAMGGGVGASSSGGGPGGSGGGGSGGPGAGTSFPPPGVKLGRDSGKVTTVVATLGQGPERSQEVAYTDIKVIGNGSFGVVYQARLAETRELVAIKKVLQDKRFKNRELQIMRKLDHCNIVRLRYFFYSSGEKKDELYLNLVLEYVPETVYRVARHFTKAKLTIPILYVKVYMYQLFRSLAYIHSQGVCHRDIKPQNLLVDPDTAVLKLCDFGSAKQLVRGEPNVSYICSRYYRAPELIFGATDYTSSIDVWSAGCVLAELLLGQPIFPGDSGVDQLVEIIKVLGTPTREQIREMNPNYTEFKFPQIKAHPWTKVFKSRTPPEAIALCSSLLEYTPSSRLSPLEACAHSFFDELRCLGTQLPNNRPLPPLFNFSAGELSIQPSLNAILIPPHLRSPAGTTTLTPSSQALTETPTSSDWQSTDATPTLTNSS
The experiment is described as above. In kind it is biochemical. The settings on record: calculated from dose-response curves; -(100) taken as no inhibition at 100.
Text: as §2, §3

A further experiment deals with GSK-3 α/β. The description is as above. The following applies: calculated from dose-response curves; -(100) taken as no inhibition at 100; read-out: IC50 Sus scrofa (GSK-3 α/β). In kind it is biochemical.
Text: as §2, §3

Setting [4] is: read-out: IC50 Trypanopsoma cruzi; calculated from dose-response curves; -(100) taken as no inhibition at 100.
Setting [5] is: calculated from dose-response curves; -(100) taken as no inhibition at 100; read-out: IC50 Trypanopsoma cruzi.
Where [6] appears, read: unit only in the introducing sentence b99, not in the table, read-out: IC50 PfGSK-3.
Setting [7] is: -(10) taken as no inhibition at 10, read-out: IC50 Mammalian GSK-3.

T3 sequence (Q4QE15 entry or part of it): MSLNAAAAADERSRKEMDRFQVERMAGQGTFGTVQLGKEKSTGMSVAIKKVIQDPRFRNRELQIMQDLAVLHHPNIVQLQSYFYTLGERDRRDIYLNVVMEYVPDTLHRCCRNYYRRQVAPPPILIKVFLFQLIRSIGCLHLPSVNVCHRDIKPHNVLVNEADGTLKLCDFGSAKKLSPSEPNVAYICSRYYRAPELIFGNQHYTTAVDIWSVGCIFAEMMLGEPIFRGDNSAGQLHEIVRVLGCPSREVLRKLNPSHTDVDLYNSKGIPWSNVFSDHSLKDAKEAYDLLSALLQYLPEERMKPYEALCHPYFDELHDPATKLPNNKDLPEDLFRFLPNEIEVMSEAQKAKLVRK

Regarding `COc1ccccc1-c1c(C#N)c(N)nc2sc(C(=O)c3ccccc3)c(N)c12` [Compound 2, 3,6-diamino-2-benzoyl-4-(2-methoxyphenyl)thieno[2,3-b]pyridine-5-carbonitrile], the “anti-PfGSK-3 IC50 values” on PfGSK-3 was “particularly good”. Further, the “anti-mammalian GSK-3 IC50 values” in experiment [1] was “do not demonstrate good”. In addition, the IC50 at GSK-3 [2] (setting [4]), at GSK-3 [3], on GSK-3 α and on GSK-3 α/β was over 100 µM each time.

`N#Cc1c(N)nc2sc(C(=O)c3cccc(Cl)c3)c(N)c2c1-c1ccccc1I` [Compound 14, 3,6-diamino-2-(3-chlorobenzoyl)-4-(2-iodophenyl)thieno[2,3-b]pyridine-5-carbonitrile]: the “anti-PfGSK-3 IC50 values” at PfGSK-3 is reported as “particularly good”. In addition, in experiment [1], the “anti-mammalian GSK-3 IC50 values” was “do not demonstrate good”. Besides, the IC50 at GSK-3 [2] (setting [5]), on GSK-3 [3], at GSK-3 α and on GSK-3 α/β was over 100 µM in each case.

`N#Cc1c(N)nc2sc(C(=O)c3cccc(Cl)c3)c(N)c2c1-c1ccccc1Br` [Compound 20, 3,6-diamino-4-(2-bromophenyl)-2-(3-chlorobenzoyl)thieno[2,3-b]pyridine-5-carbonitrile]: on PfGSK-3, the “anti-PfGSK-3 IC50 values” was “particularly good”. Also, in experiment [1], the “anti-mammalian GSK-3 IC50 values” is on record as “do not demonstrate good”. For the same molecule, the IC50 is over 100 µM on GSK-3 [2] (setting [5]), over 100 µM on GSK-3 [3], over 100 µM at GSK-3 α and 5.6 µM at GSK-3 α/β.

For `N#Cc1c(N)nc2sc(C(=O)c3cccc(Cl)c3)c(N)c2c1-c1ccccc1Cl` [Compound 22, 3,6-diamino-2-(3-chlorobenzoyl)-4-(2-chlorophenyl)thieno[2,3-b]pyridine-5-carbonitrile], the IC50 at PfGSK-3 (read-out: PfGSK-3 IC50) was 0.47 µM; on PfGSK-3 (setting [6]), 0.06 µM; in experiment [1] (setting [7]), over 10 µM; in experiment [1] (read-out: mammalian GSK-3α/β IC50) it was over 10 µM; at GSK-3 [2] (setting [4]), over 100 µM; at GSK-3 [3] it was over 100 µM. Moreover, the IC50 is over 100 µM on GSK-3 α and over 10 µM at GSK-3 α/β. Moreover, the “anti-PfGSK-3 IC50 values” on PfGSK-3 is recorded as “particularly good”. Moreover, the “anti-mammalian GSK-3 IC50 values” in experiment [1] is reported as “do not demonstrate good”.

With `N#Cc1cccc(C(=O)c2sc3nc(N)c(C#N)c(-c4ccccc4Cl)c3c2N)c1` [Compound 26, 3,6-diamino-4-(2-chlorophenyl)-2-(3-cyanobenzoyl)thieno[2,3-b]pyridine-5-carbonitrile], the “anti-PfGSK-3 IC50 values” on PfGSK-3 is recorded as “particularly good”. Further, the IC50 at PfGSK-3 (setting [6]) was 0.5 µM; in experiment [1] (setting [7]) it was over 10 µM; at GSK-3 [2] (setting [5]), over 100 µM; on GSK-3 [3] it was over 100 µM; on GSK-3 α, over 25 µM; at GSK-3 α/β, 22 µM. Moreover, the “anti-mammalian GSK-3 IC50 values” in experiment [1] is “do not demonstrate good”.
